Laboratory results taken from PMC9413201, “Covalent Proteomimetic Inhibitor of the Bacterial FtsQB Divisome Complex” (Journal of the American Chemical Society, 2022).
Like-named read-outs stand apart in the source and are kept apart here.

Columns and labels:
E. coli lptD4213 (imp) = assay: Growth assay (OD600) with outer membrane-permeable E. coli lptD4213 (imp); format: cell-based; conditions: for Δt1/2 (delay in growth compared to DMSO-treated sample): inhibitor c = 50 μM, MOPS medium, 37 °C
Procedure: Growth assays were performed to assess the in vitro cytotoxicity of peptides. The experiments were executed under sterile conditions. For each assay, 20 mL of fresh MOPS medium was prepared (Teknova Inc MOPS EZ Rich Defined Medium Kit | M2105: 40 mM MOPS, 4 mM Tricine, 0.01 mM FeSO4, 9.5 mM NH4Cl, 0.276 mM […]
MOPS medium with Streptomycin (30 μg/mL) and incubated overnight at 200 rpm and 37°C. The next day, the […]
peptide stocks in DMSO were diluted to four times the desired highest concentration to be measured in MOPS medium. The peptide dilutions were vortexed and briefly centrifuged. 50 μL of MOPS medium was added to each well of a Corning® 96-well Clear Flat Bottom Polystyrene TC-treated Microplate. A twofold dilution series was performed by adding 50 μL of the diluted peptide to the top row, mixing it and taking 50 μL to the next row. At each step the solution was resuspended five times. This was repeated until the last row which was skipped in order to obtain a reference measurement. After 2-3 h, the E.coli lptD4213 (imp) pre-culture was diluted to an OD600 of 0.00005. Then, 50 μL of diluted culture were added to each well and the plate sealed using a lid and parafilm. The OD600 was measured every 15 min over a period of more than 20 h (continuously shaking, 37°C) using a BioTek Synergy H1 plate reader. The obtained data were analyzed and relative growth curves plotted with GraphPad Prism 8. The assays were performed as technical triplicates. A single overnight pre-culture was used to prepare the diluted MOPS culture used in the growth assay. […]

FtsQ(50–276) [1] = target: T1, FtsQ(50–276) (Escherichia coli, UniProt P06136); format: biochemical, E. coli; design: pET16b FtsQ(50˗276), a His6 fusion; made in house; host or cells: Escherichia coli BL21 DE3
T1 sequence (P06136 50-276): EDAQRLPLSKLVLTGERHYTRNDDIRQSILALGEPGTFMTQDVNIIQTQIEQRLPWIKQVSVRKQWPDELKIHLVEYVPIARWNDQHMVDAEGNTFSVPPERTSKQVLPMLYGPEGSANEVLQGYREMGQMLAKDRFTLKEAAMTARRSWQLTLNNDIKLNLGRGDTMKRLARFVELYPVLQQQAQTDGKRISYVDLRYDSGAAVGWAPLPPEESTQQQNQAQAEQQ
Procedure: 1.5 Protein modification assay
To determine the reactivity of the different modifiers FtsQ(50˗276) was diluted to a concentration of 100 µM in 20 mM NH4HCO3 buffer (pH 7.6, 150 mM NaCl). The individual peptides were diluted to a concentration of 250 μM in the same buffer. Equal volumes of both solutions were mixed and incubated at 37 °C for the given time period (1 h or 3 h). The reaction was quenched using 5x SDS sample buffer (pH 6.8, 1.875 g TRIS-Cl, 25 mL glycerol, 5 g SDS, 12.5 mL β-mercaptoethanol, 0.5 % bromphenol blue and add 50 mL ddH2O). Samples were heated to 96 °C for 2 min and subsequently analysed by 17 % tris/tricine PAGE (15 min at 90 V and then 3:45 h at 150 V). PageRuler™ Prestained Protein Ladder, 10 to 180 kDa (Thermo Scientific™) was used as a ladder.
Staining was performed using standard Coomassie Staining Solution (40 mL EtOH, 0.3 g Coomassie Blue R250, 0.3 g Coomassie Blue G250, ad 100 mL ddH2O.) and then destained using water.
17 % Tris/Tricine gel (2x):
Running gel: 1.6 mL H2O, 5.5 mL AB-mix, 2.5 mL Buffer A, 100 μL 10% APS, 10 μL 1% TEMED Stacking gel: 2.1 mL H2O, 0.5 mL AB-mix, 0.38 mL Buffer A, 50 μL 10% APS, 5 μL 1% TEMED […]
Buffer A (4x) pH 8.45 3M Tris, 0.3 % SDS; Anode Buffer (10x) pH 8.8, 3M Tris; Cathode buffer (10x) 1M Tris, […]

[2] = test system: FtsB-mNG localization in E. coli lptD4213 (imp); assay: Localization of FtsB-mNG (fluorescence microscopy); format: cell-based; conditions: peptide c = 100 μM, 60 min after addition, MOPS rich medium, 37 °C
Procedure: were incubated for 1 h at 50 °C. The condensates were collected by centrifuging for 10 s. The digests were mixed for a few seconds and transferred to another tube. 0.5 % TFA was added to inactivate trypsin. The samples were […]
E.coli mutant lptD4213 (imp)
MOPS: MOPS EZ Rich Defined Medium Kit M2105 (Teknova).
At the end of the day, the cells
The next day, the cells were grown and diluted […]
objective. […] In all experiments, the cells […]
ex470/40, dic495LP, em525/50).

FtsQ(50–276) [3] = target: T1, FtsQ(50–276); conditions: tryptic digest, LC-MS/MS
Procedure: μM CaCl2, 50 mM NaCl, traces of (NH4)6Mo7O24, H3BO3, CoCl2, CuSO4, MnCl2 and ZnSO4, 1.32 mM dibasic anhydrous […], 0.20% glucose, 1.5 mM KOH, 0.199 mM adenine, cytosine, uracil and guanine and 0.01 mM to 10 mM amino acids). A preculture of E.coli lptD4213 (imp) was prepared in 5 mL MOPS medium with streptomycin (30 μg/mL), which was grown overnight at 200 rpm and 37°C. The next day, the overnight culture was diluted a thousandfold and grown up to an OD600 of about 0.5 at 200 rpm and 37°C. After 2-3h, the culture was diluted to an OD600 of 0.1. 10 mM peptide stocks in DMSO were subsequently diluted to 200 μM in MOPS medium. For measuring two time points, a total volume of 110 μL peptide dilution was prepared, for 3 timepoints this was 160 μL. For each time point, 50 μL of diluted peptide was added into an Eppendorf tube, to which 50 μL diluted culture was added (final peptide concentration: 100 μM, starting OD600 = 0.05). The tubes were incubated for either 1,3 or 6 h at 200 rpm and 37°C. Then the cells were fixed using 8.3 μL 37% formaldehyde solution in H2O and incubated for 5 min at 200 rpm and 37°C. Subsequently, the mixture was centrifuged at 500 rpm for 5 min, after which the supernatant was discarded. The pellets were redissolved in 7.5 μL PBS buffer and stored at […]
Microscopy slides were prepared by melting 1% Nobel Agarose in MiliQ water in a microwave. 800 μL was dispersed over a well slide, a microscopy slide was put on top and air bubbles were removed. The agar was allowed to cool for 15 min, after which the microscopy slide was removed. The frozen samples were thawed and 3 μL of each sample was added to separate wells, after which a covering glass was put on top. Using an Olympus IX83 microscope with 100 times magnification ocular and phase contrast (halogen lamp wat approximately 7V), the morphology of the cells was investigated. Pictures were taken and subsequently analyzed with ImageJ and the ObjectJ Cell Counter (https://sils.fnwi.uva.nl/bcb/objectj/examples/CellCounter/cellcounter-md/cellcounter.html, accessed on February 2020).
For the MS/MS experiment samples were prepared as follows. The FtsQ(50˗276) stock solution was diluted to 100 μM and the stock of peptide 24fα was diluted to 250 μM with previously used binding buffer (20 mM NH4HCO3 (pH 7.6), 150 mM NaCl). 10 μL of each diluted stock were merged and the resulting mixture incubated over night at 37 °C. Then the samples were mixed with 5x SDS Sample buffer and 2.5 μL/lane loaded on to a 17% tris/tricine PAGE. The gel was run for 15 min at 90 V and 2h at 150 V.
A container of glass was prepared and extensively washed with soda and water. The gel was placed in the container and incubated in fixing solution (50% EtOH, 3% H3PO4) overnight to remove SDS. The next day, the fixing solution was removed and the gel washed with water a couple of times. Colloidal Coomassie staining solution (34% MeOH, 3 % H3PO4, 150 g (NH4)2SO4/L, 1 g/L G250) was added and the gel stained for 2 d. Then the gel was washed 3x for 30 min with water. Then the bands corresponding to modified and unmodified FtsQ were cut out (1 mm3 pieces) from the gel and transferred to original Eppendorf tubes. The gel pieces were washed with 200 μL water by vortex mixing for 30 s. Then the water was discarded. The gel pieces were then washed with 200 μL MeOH:50 mM NH4HCO3 (1:1 v/v) for 1 min with intermittent vortex mixing. The supernatant was discarded and the procedure repeated once. Then the gel pieces were dehydrated for 5 min in 200 μL of ACN: 50 mM NH4HCO3 (1:1 v/v) with intermittent vortex mixing. The supernatants were discarded and 200 μL of 100 % ACN added, mixed and incubated for 30 s. The samples were dried in a SpeedVac (appr. 5 min). They were then […]
rehydrated in 20 μL of 12 ng/μL Trypsin in 0.01% ProteaseMAX surfactant (Promega): 50 mM NH4HCO3 (Trypsin gold stock 1 μg/μl from Promega, high thermostability) for 10 min (2 μL to 200 μL) and overlayed with […]

[4] = OD600 every 15 min over 22 h, n = 3 technical replicates

QEALEERA6NELSBTRPG6mFYRL (sidechain bridge or staple) [24fδ]
Δt1/2 (delay in growth compared to DMSO-treated sample) (E. coli lptD4213 (imp); [4]): 4.1 h | covalent labeling of FtsQ(50–276) (up-shifted band) (FtsQ(50–276) [1]; pH 7.6): showed labeling of FtsQ(50–276)

QEALEERA6NELSBTRPG6mFYRL (sidechain bridge or staple) [24fβ]
Δt1/2 (delay in growth compared to DMSO-treated sample) (E. coli lptD4213 (imp); [4]): 1.7 h | covalent labeling of FtsQ(50–276) (up-shifted band) (FtsQ(50–276) [1]; pH 7.6): showed labeling of FtsQ(50–276)

A6NELSBTRPG6mFYRL (sidechain bridge or staple) [17fγ, vinyl sulfone-modified 17-mer macrocyclic scaffold]
Δt1/2 (delay in growth compared to DMSO-treated sample) (E. coli lptD4213 (imp); [4]): 4.5 h | specificity of FtsQ(50–276) modification (number of up-shifted bands) (FtsQ(50–276) [1]): two up-shifted bands

A6NELSBTRPG6mFY (sidechain bridge or staple) [15fα, 24fα lacking seven N-terminal and two C-terminal amino acids; negative control peptide]
lowest concentration with inhibitory effect on growth (E. coli lptD4213 (imp); concentration-dependent effect on growth after 15 h, highest tested concentration 100 μM, n = 3 replicates): > 100 µM | inhibitory activity on bacterial growth (OD600) (E. coli lptD4213 (imp); inhibitor c = 25 μM, OD600 every 15 min over 22 h, n = 3 technical replicates): did not exhibit inhibitory activity | FtsB-mNG midcell localization [2]: regular accumulation of FtsB-mNG at the midcell

A6NELSBTRPG6mFYRL (sidechain bridge or staple) [17fδ, dichlorotriazin-modified 17-mer macrocyclic scaffold]
Δt1/2 (delay in growth compared to DMSO-treated sample) (E. coli lptD4213 (imp); [4]): 5.7 h

QEALEERA6NELSBTRPG6mFYRL (sidechain bridge or staple) [24fα]
Δt1/2 (delay in growth compared to DMSO-treated sample) (E. coli lptD4213 (imp); [4]): 3.6 h | covalent labeling of FtsQ(50–276) (up-shifted band) (FtsQ(50–276) [1]; peptide 125 μM, FtsQ(50–276) 50 μM, 20 mM NH4HCO3 pH 7.6, 150 mM NaCl, 37 °C, 1 or 3 h): showed labeling of FtsQ(50–276) | count ratio 24fα-modified / unmodified FtsQ, ID 2 HYTRNDDIR (FtsQ(50–276) [3]): 1.60 | count ratio 24fα-modified / unmodified FtsQ, ID 3 […](*) (FtsQ(50–276) [3]): 0.43 | count ratio 24fα-modified / unmodified FtsQ, ID 4 K/QWPDELK/[…] (FtsQ(50–276) [3]): 1.01 | count ratio 24fα-modified / unmodified FtsQ, ID 5 […](*) (FtsQ(50–276) [3]): 1.20 | count ratio 24fα-modified / unmodified FtsQ, ID 6 […]/EMGQMLAK(*) (FtsQ(50–276) [3]): 1.00 | count ratio 24fα-modified / unmodified FtsQ, ID 7 DRFTLK (FtsQ(50–276) [3]): 1.03 | count ratio 24fα-modified / unmodified FtsQ, ID 8 EAAMTAR* (FtsQ(50–276) [3]): 0.62 | count ratio 24fα-modified / unmodified FtsQ, ID 9 R/[…] (contains K208) (FtsQ(50–276) [3]): 1.13 | count ratio 24fα-modified / unmodified FtsQ, ID 10 LNLGR/GDTMK/R (contains K218) (FtsQ(50–276) [3]): 0.56 | count ratio 24fα-modified / unmodified FtsQ, ID 11 […]/R (contains K239) (FtsQ(50–276) [3]): 0.20 | count ratio 24fα-modified / unmodified FtsQ, ID 12 ISYVDLR (FtsQ(50–276) [3]): 1.24 | count ratio 24fα-modified / unmodified FtsQ, ID 13 […] (FtsQ(50–276) [3]): 2.47 | count ratio 24fα-modified / unmodified FtsQ, ID 1 LVLTGER (FtsQ(50–276) [3]; peptide 125 μM + FtsQ 50 μM overnight 37 °C): 1.17

QEALEERA6NELSBTRPG6mFYRL (sidechain bridge or staple) [24fγ, vinylsulfon-modified macrocyclic 24f, N-acetylated]
specificity of FtsQ(50–276) modification (number of up-shifted bands) (FtsQ(50–276) [1]): multiple up-shifted bands | covalent labeling of FtsQ(50–276) (up-shifted band) (FtsQ(50–276) [1]; pH 7.6): showed labeling of FtsQ(50–276)
